Like-named read-outs stand apart in the source and are kept apart here.
Key:
[1] = target: T1, MDM2 (Homo sapiens, UniProt Q00987); experiment: Plate-based E3 ligase assay, MDM2 autoubiquitination (MDM2-FLAG); type: biochemical
Protocol: E3 (His-APC11/APC2—“APC”) auto-ubiquitination was measured as described in U.S. patent application Ser. No. 09/826,312 (Publication No. US-2002-0042083-A1), which is incorporated herein in its entirety. Details of the protocol are described below. Activity in the presence of the compound was determined relative to a parallel control in which only DMSO was added. Values of the IC50 were typically determined using 6 or 8 different concentrations of the compound, although as few as 2 concentrations may be used to approximate the IC50 value.
Nickel-coated 96-well plates (Pierce 15242) were blocked for 1 hour with 100 μl of blocking buffer at room temperature. The plates were washed 4 times with 225 μl of 1×PBS and 80 μl of the reaction buffer were added that contained 100 ng/well of Flag-ubiquitin. To this, 10 μl of the test compound diluted in DMSO were added. After the test compound was added, 10 μl of E1 (human), E2 (Ubch5c), and APC in Protein Buffer was added to obtain a final concentration of 5 ng/well of E1, 20 ng/well: of E2 and 100 ng/well of APC. The plate were shaken for 10 minutes and incubated at room temperature for 1 hour. After incubation, the plates were washed 4 times with 225 μl of 1×PBS and 100 μl/well of Antibody Mix were added to each well. The plates were incubate at room temperature for another hour after which they were washed 4 times with 225 μl of 1×PBS and 100 μl/well of Lumino substrate were added to each well. The luminescence was measured by using a BMG luminescence microplate reader.
In similar manner, autoubiquitination of the E3 MDM2 was determined (MDM2-FLAG). Further instruction in such assays can be found in U.S. patent application Ser. No. 10/108,767 (Publication No. US-2003-0104474 A1), which is incorporated herein in its entirety.
(§1) hMDM2 Plate/Gel is Mouse double minute 2, human homolog. This protein belongs to the E3 RING finger ligase group.

[2] = tested on: p53 reporter system in p53 wild-type A549 cell line; experiment: p53-dependent transcription reporter assay, A549RE; type: cell-based; settings: p53 +ve cell type; maximal fold induction over DMSO control
Protocol: Stable lines of U2OS (osteosarcoma; Wild-type p53 positive), HCT116 (colorectal carcinoma; Wild-type p53 positive) and H1299 (lung non-small cell carcinoma; p53 null) carrying p53-dependent transcriptional regulatory element linked to a Luciferase reporter gene and H1299 carrying a 5′-regulatory region of GADD45 linked to Luciferase were used.
Day 2: The compounds or control drugs were diluted in dimethyl sulfoxide (DMSO) and added to the wells to create 6-points/2-fold serial dilution (20, 10, 5, 2.5, 1.25, 0.625 and 0 μM) for each compound. The DMSO concentration was adjusted to 0.2% in all wells.
Day 3: Twenty to 24 hours after compound addition, cells were twice washed with PBS and lysed with Glo-lysis buffer (100 μl/well, Promega; Cat#E2661). Plates were subjected to gentle agitation on a table-top shaker for 5 minutes at room temperature. Fifty μl of lysate was transferred to an assay plate to test for luciferase activity and mixed with 2× assay buffer (Promega; Cat# E1483). The reaction mixture was left at room temperature for 2 minutes and then luminescence was measure by a luminometer (Victor™, 1420 Multilabel Counter, Wallac).
Data analysis was done on Excel software (Microsoft). Values in Table 4 represent maximal fold induction over negative control (DMSO only) and are the mean of at least duplicate experiments.
A549RE is a p53 wild-type A549 cell line containing p53 reporter system. If the compound acts against MDM2, p53 activity increases.

[3] = target: T1, MDM2; experiment: MDM2 gel-based E3 ligase assay; type: biochemical; settings: compound at 20 μM; result in words
Protocol: E3 (His-APC11/APC2—“APC”) auto-ubiquitination was measured as described in U.S. patent application Ser. No. 09/826,312 (Publication No. US-2002-0042083-A1), which is incorporated herein in its entirety. Details of the protocol are described below. Activity in the presence of compound was determined relative to a parallel control in which only DMSO is added. The IC50 values were typically determined using 6 or 8 different concentrations of compound, although as few as 2 concentrations may be used to approximate the IC50 values.
(§2) Corning 96-well plates (Corning 3650) were blocked with 100 μl of Blocking Buffer for 1 hour at room temperature. The plates were washed 4 times with 225 μl of 1×PBS and 80 μl of the reaction buffer were added that contained 100 ng/well of Flag-ubiquitin. To this, 10 μl of the test compound diluted in DMSO were added. After the test compound was added, 10 μl of E1 (human), E2 (Ubch5c) and APC in Protein Buffer were added to obtain a final concentration of 5 ng/well of E1, 20 ng/well of E2 and 100 ng/well APC. The plates were shaken for 10 minutes and incubated at room temperature for 1 hour. After incubation, the reaction was stopped by adding 25 μl of loading buffer (non-reducing) per well and the plates were heated at 95° C. for 5 minutes. An aliquot of each well was run on a 10% NugePage Gel and analyzed by Western Blot using the antibody mix and Lumino substrate described below. The luminescence was measured by using a BMG luminescence microplate reader.
as §1

[4] = target: E2 (Ubch5c) (Homo sapiens, UniProt P61077); experiment: E2 ligase assay, E2 auto-ubiquitination; type: biochemical; settings: Table 2
Protocol: E2 (Ubch5c) auto-ubiquitination was measured as described in U.S. patent application Ser. No. 09/826,312 (Publication No. US-2002-0042083-A1), which is incorporated herein in its entirety. Details of the protocol are described below. Activity in the presence of the test compound was determined relative to a parallel control in which only DMSO was added. The IC50 values were typically determined using 6 or 8 different concentrations of compound, although as few as 2 concentrations may be used to approximate IC50 values.
as §2, with “washed for” for “washed”, “(human) and” for “(human),”, “(Ubch5c)” for “(Ubch5c) and APC”, “E1 and” for “E1,”, “E2.” for “E2 and 100 ng/well APC.”, “measured” for “measured by”

[5] = Table 3, read-out: MDM2 Plate IC50

Chain of E2 (Ubch5c) (P61077 whole entry): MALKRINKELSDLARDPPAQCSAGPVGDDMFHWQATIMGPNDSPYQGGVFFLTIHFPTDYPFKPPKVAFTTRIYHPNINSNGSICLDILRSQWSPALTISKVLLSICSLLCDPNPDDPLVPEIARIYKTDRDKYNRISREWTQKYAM
T1 sequence (Q00987 whole entry): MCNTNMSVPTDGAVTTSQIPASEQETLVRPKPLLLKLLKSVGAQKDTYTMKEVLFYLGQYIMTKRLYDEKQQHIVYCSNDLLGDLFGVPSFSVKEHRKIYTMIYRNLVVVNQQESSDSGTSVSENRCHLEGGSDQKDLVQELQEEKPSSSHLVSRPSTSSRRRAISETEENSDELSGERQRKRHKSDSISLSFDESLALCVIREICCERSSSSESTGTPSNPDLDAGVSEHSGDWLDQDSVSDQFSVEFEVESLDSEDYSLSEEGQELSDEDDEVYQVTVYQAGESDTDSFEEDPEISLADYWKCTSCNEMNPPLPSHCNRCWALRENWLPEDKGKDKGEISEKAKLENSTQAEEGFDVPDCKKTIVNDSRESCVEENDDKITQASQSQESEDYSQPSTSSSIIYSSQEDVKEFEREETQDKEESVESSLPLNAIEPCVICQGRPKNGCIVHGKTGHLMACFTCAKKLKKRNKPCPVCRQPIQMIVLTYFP

SMILES	IC50 ([1]; Table 2, read-out: MDM2 IC50) [µM]	IC50 [1, 5] [µM]	Fold Induction of p53 activity, A549RE [2]	MDM2 Gel 20 μM [3]	IC50 [4] [µM]
COc1cccc(-c2csc(N(CCOc3ccccc3)Cc3ccc(C(=O)N4CCNCC4)cc3)n2)c1 [compound 352]	1 to 20	1 to 20	a (a means 2 or less)	Weak	≥ 20
COc1cccc(CN(Cc2ccc(C(=O)N3CCNCC3)cc2)c2nc(-c3ccc(Br)cc3)cs2)c1OC [compound 353]	1 to 20	1 to 20	a (a means 2 or less)	Active	≥ 20
O=C(c1ccc(CN(CCOc2ccccc2)c2nc(-c3ccc(Cl)c(Cl)c3)cs2)cc1)N1CCNCC1 [compound 360]	1 to 20	< 1	a (a means 2 or less)	Potent	≥ 20

The remaining lines, values ahead:

IC50 ([1]; Table 2, read-out: MDM2 IC50) [µM]	IC50 [1, 5] [µM]	Fold Induction of p53 activity, A549RE [2]	MDM2 Gel 20 μM [3]	IC50 [4] [µM]	SMILES
1 to 20	1 to 20	a (a means 2 or less)	Weak		O=C(c1ccc(CN(Cc2cccc(OC(F)(F)F)c2)c2nc(-c3ccccc3)cs2)cc1)N1CCNCC1 [compound 275]
1 to 20	1 to 20	a (a means 2 or less)	Potent		O=C(c1ccc(CN(Cc2cccc(OC(F)(F)F)c2)c2nc(-c3ccc4ccccc4c3)cs2)cc1)N1CCNCC1 [compound 282, 4-(2-naphthyl)-N-[4-(piperazin-1-ylcarbonyl)benzyl]-N-[3-(trifluoromethoxy)benzyl]-1,3-thiazol-2-amine]
1 to 20	1 to 20	a (a means 2 or less)	Active	≥ 20	COc1cccc(-c2csc(N(Cc3ccc(C(=O)N4CCNCC4)cc3)Cc3cccc(OC(F)(F)F)c3)n2)c1 [compound 351]

— patent US20060160869A1, “Ubiquitin ligase inhibitors” (Rigel Pharmaceuticals, Inc., priority 2005, published 2006)
